Among the data in US20240228504A1, “SUBSTITUTED TRICYCLIC AMIDES, ANALOGUES THEREOF, AND METHODS USING SAME” (Arbutus Biopharma Corporation, priority 2020, published 2024) are EC50 values, retold here.

For orientation: EC50 means the concentration at which the effect is half-maximal.

For the assay, the system named is HBV rcDNA in HepDE19 cells. The experiment in a line: HepDE19 assay with bDNA quantitation of HBV rcDNA. The assay is classed as cell-based, hepatitis B virus. The settings on record: Hepatitis B virus, HepDE19, HepDE19 assay, inhibition of rcDNA formation, bDNA quantitation; read-out: DE-19bDNA EC50.
`CCC(CC)C(=O)OC1OC[C@@H](N(C)C(=O)c2cc3cc(F)c(F)cc3[nH]2)c2c1[nH]c(=O)c1cc(F)c(F)cc21` (stereo partly drawn) [Compound 331, (1S)-1-(5,6-Difluoro-N-methyl-1H-indole-2-carboxamido)-8,9-difluoro-6-oxo-1,4,5,6-tetrahydro-2H-pyrano[3,4-c]isoquinolin-4-yl 2-ethylbutanoate]: the EC50 stood at 10 nM.
With `CN(C(=O)c1cc2oc(Cl)cc2[nH]1)[C@@H]1COCc2[nH]c(=O)c3cc(F)c(F)cc3c21` [Compound 332, (S)-2-Chloro-N-(8,9-difluoro-6-oxo-1,4,5,6-tetrahydro-2H-pyrano[3,4-c]isoquinolin-1-yl)-N-methyl-4H-furo[3,2-b]pyrrole-5-carboxamide], the EC50 was 40 nM.
The result for `CN(C(=O)c1cc2c(C#N)cc(F)cc2[nH]1)[C@@H]1COCc2[nH]c(=O)c3cc(F)c(F)cc3c21` [Compound 341, (S)-4-Cyano-N-(8,9-difluoro-6-oxo-1,4,5,6-tetrahydro-2H-pyrano[3,4-c]isoquinolin-1-yl)-6-fluoro-N-methyl-1H-indole-2-carboxamide] reads 30 nM; that for `CCc1cc(F)cc2[nH]c(C(=O)N(C)[C@@H]3COCc4[nH]c(=O)c5cc(F)c(F)cc5c43)cc12` [Compound 342, (S)-N-(8,9-Difluoro-6-oxo-1,4,5,6-tetrahydro-2H-pyrano[3,4-c]isoquinolin-1-yl)-4-ethyl-6-fluoro-N-methyl-1H-indole-2-carboxamide], 10 nM; that for `CN(C(=O)c1cc2c(Cl)cc(F)cc2[nH]1)[C@@H]1COCc2[nH]c(=O)c3cc(F)c(F)cc3c21` [Compound 343, (S)-4-Chloro-N-(8,9-difluoro-6-oxo-1,4,5,6-tetrahydro-2H-pyrano[3,4-c]isoquinolin-1-yl)-6-fluoro-N-methyl-1H-indole-2-carboxamide], 10 nM.
On to `Cc1cc(F)cc2[nH]c(C(=O)N(C)[C@@H]3COCc4[nH]c(=O)c5cc(F)c(F)cc5c43)cc12` [Compound 344, (S)-N-(8,9-Difluoro-6-oxo-1,4,5,6-tetrahydro-2H-pyrano[3,4-c]isoquinolin-1-yl)-6-fluoro-N,4-dimethyl-1H-indole-2-carboxamide], for which the EC50 was found to be 10 nM.
The result for `CN(C(=O)c1cc2cc(C#N)ccc2[nH]1)[C@@H]1COCc2[nH]c(=O)c3cc(F)c(F)cc3c21` [Compound 345, (S)-5-Cyano-N-(8,9-difluoro-6-oxo-1,4,5,6-tetrahydro-2H-pyrano[3,4-c]isoquinolin-1-yl)-N-methyl-1H-indole-2-carboxamide] reads 30 nM; that for `CN(C(=O)c1cc2cc(S(C)(=O)=O)ccc2[nH]1)[C@@H]1COCc2[nH]c(=O)c3cc(F)c(F)cc3c21` [Compound 346, (S)-N-(8,9-Difluoro-6-oxo-1,4,5,6-tetrahydro-2H-pyrano[3,4-c]isoquinolin-1-yl)-N-methyl-5-(methylsulfonyl)-1H-indole-2-carboxamide], 6700 nM.
Take `CN(C(=O)c1cc2c(Cl)cccc2[nH]1)[C@@H]1COCc2[nH]c(=O)c3cc(F)c(F)cc3c21` [Compound 347, (S)-4-Chloro-N-(8,9-difluoro-6-oxo-1,4,5,6-tetrahydro-2H-pyrano[3,4-c]isoquinolin-1-yl)-N-methyl-1H-indole-2-carboxamide]: the EC50 amounted to 10 nM.
The result for `CN(C(=O)c1cc2ccc(Br)cn2c1)[C@@H]1COCc2[nH]c(=O)c3cc(F)c(F)cc3c21` [Compound 348, (S)-6-Bromo-N-(8,9-difluoro-6-oxo-1,4,5,6-tetrahydro-2H-pyrano[3,4-c]isoquinolin-1-yl)-N-methylindolizine-2-carboxamide] reads 40 nM.
With `CN(C(=O)c1cc2sc(Cl)cc2[nH]1)[C@@H]1COCc2[nH]c(=O)c3cc(F)c(F)cc3c21` [Compound 349, (S)-2-Chloro-N-(8,9-difluoro-6-oxo-1,4,5,6-tetrahydro-2H-pyrano[3,4-c]isoquinolin-1-yl)-N-methyl-4H-thieno[3,2-b]pyrrole-5-carboxamide], the EC50 came out at 10 nM.
As for `CN(C(=O)c1cc2scc(Cl)c2[nH]1)[C@@H]1COCc2[nH]c(=O)c3cc(F)c(F)cc3c21` [Compound 350, (S)-3-chloro-N-(8,9-difluoro-6-oxo-1,4,5,6-tetrahydro-2H-pyrano[3,4-c]isoquinolin-1-yl)-N-methyl-4H-thieno[3,2-b]pyrrole-5-carboxamide], the figure is 70 nM; as for `CN(C(=O)c1cc2c(CO)cc(F)cc2[nH]1)[C@@H]1COCc2[nH]c(=O)c3cc(F)c(F)cc3c21` [Compound 355, (S)-N-(8,9-Difluoro-6-oxo-1,4,5,6-tetrahydro-2H-pyrano[3,4-c]isoquinolin-1-yl)-6-fluoro-4-(hydroxymethyl)-N-methyl-1H-indole-2-carboxamide], 20 nM.
As for `CN(C(=O)c1cc2cncc(Br)c2o1)[C@@H]1COCc2[nH]c(=O)c3cc(F)c(F)cc3c21` [Compound 356, (S)-7-Bromo-N-(8,9-difluoro-6-oxo-1,4,5,6-tetrahydro-2H-pyrano[3,4-c]isoquinolin-1-yl)-N-methylfuro[3,2-c]pyridine-2-carboxamide], the figure is 1500 nM.
As for `CN(C(=O)c1ccc2c(Cl)nn(C(F)F)c2c1)[C@@H]1COCc2[nH]c(=O)c3cc(F)c(F)cc3c21` [Compound 357, (S)-3-Chloro-N-(8,9-difluoro-6-oxo-1,4,5,6-tetrahydro-2H-pyrano[3,4-c]isoquinolin-1-yl)-1-(difluoromethyl)-N-methyl-1H-indazole-6-carboxamide], the figure is 30 nM; as for `CN(C(=O)c1ccc2c(Cl)n(C(F)F)nc2c1)[C@@H]1COCc2[nH]c(=O)c3cc(F)c(F)cc3c21` [Compound 358, (S)-3-Chloro-N-(8,9-difluoro-6-oxo-1,4,5,6-tetrahydro-2H-pyrano[3,4-c]isoquinolin-1-yl)-2-(difluoromethyl)-N-methyl-2H-indazole-6-carboxamide], 680 nM.
Take `CN(C(=O)c1ccc2c(c1)c(Cl)nn2C(F)F)[C@@H]1COCc2[nH]c(=O)c3cc(F)c(F)cc3c21` [Compound 359, (S)-3-chloro-N-(8,9-difluoro-6-oxo-1,4,5,6-tetrahydro-2H-pyrano[3,4-c]isoquinolin-1-yl)-1-(difluoromethyl)-N-methyl-1H-indazole-5-carboxamide]: the concentration for a half-maximal effect (EC50) came to 10 nM.
As for `CN(C(=O)c1ccc2nn(C(F)F)c(Cl)c2c1)[C@@H]1COCc2[nH]c(=O)c3cc(F)c(F)cc3c21` [Compound 360, (S)-3-Chloro-N-(8,9-difluoro-6-oxo-1,4,5,6-tetrahydro-2H-pyrano[3,4-c]isoquinolin-1-yl)-2-(difluoromethyl)-N-methyl-2H-indazole-5-carboxamide], the figure is 120 nM; as for `CN(C(=O)c1ccc(Cl)c(Cl)c1)[C@@H]1COCc2[nH]c(=O)c3cc(F)c(F)cc3c21` [Compound 361, (S)-3,4-Dichloro-N-(8,9-difluoro-6-oxo-1,4,5,6-tetrahydro-2H-pyrano[3,4-c]isoquinolin-1-yl)-N-methylbenzamide], 10 nM; as for `CN(C(=O)c1cc2c(NS(C)(=O)=O)cc(F)cc2[nH]1)[C@@H]1COCc2[nH]c(=O)c3cc(F)c(F)cc3c21` [Compound 362, (S)-N-(8,9-Difluoro-6-oxo-1,4,5,6-tetrahydro-2H-pyrano[3,4-c]isoquinolin-1-yl)-6-fluoro-N-methyl-4-(methylsulfonamido)-1H-indole-2-carboxamide], 14000 nM.
As for `CN(C(=O)c1cc2c(OC(F)(F)F)cccc2[nH]1)[C@@H]1COCc2[nH]c(=O)c3cc(F)c(F)cc3c21` [Compound 363, (S)-N-(8,9-Difluoro-6-oxo-1,4,5,6-tetrahydro-2H-pyrano[3,4-c]isoquinolin-1-yl)-N-methyl-4-(trifluoromethoxy)-1H-indole-2-carboxamide], the figure is 20 nM; as for `COc1ccc2cc(C(=O)N(C)[C@@H]3COCc4[nH]c(=O)c5cc(F)c(F)cc5c43)[nH]c2c1` [Compound 364, (S)-N-(8,9-Difluoro-6-oxo-1,4,5,6-tetrahydro-2H-pyrano[3,4-c]isoquinolin-1-yl)-6-methoxy-N-methyl-1H-indole-2-carboxamide], 30 nM.
Take `CN(C(=O)c1cnc(C(F)(F)F)c(Br)c1)[C@@H]1COCc2[nH]c(=O)c3cc(F)c(F)cc3c21` [Compound 365, (S)-5-Bromo-N-(8,9-difluoro-6-oxo-1,4,5,6-tetrahydro-2H-pyrano[3,4-c]isoquinolin-1-yl)-N-methyl-6-(trifluoromethyl)nicotinamide]: the EC50 stood at 60 nM.
Turning to `CN(C(=O)c1ccc2ccc(Cl)n2c1)[C@@H]1COCc2[nH]c(=O)c3cc(F)c(F)cc3c21` [Compound 366, (S)-3-Chloro-N-(8,9-difluoro-6-oxo-1,4,5,6-tetrahydro-2H-pyrano[3,4-c]isoquinolin-1-yl)-N-methylindolizine-6-carboxamide], the EC50 was 100 nM.
Take `COc1c2ccc(C(=O)N(C)[C@@H]3COCc4[nH]c(=O)c5cc(F)c(F)cc5c43)cc2nn1C(F)F` [Compound 367, (S)-N-(8,9-Difluoro-6-oxo-1,4,5,6-tetrahydro-2H-pyrano[3,4-c]isoquinolin-1-yl)-2-(difluoromethyl)-3-methoxy-N-methyl-2H-indazole-6-carboxamide]: the EC50 came out at 4600 nM.
`COc1c2cc(C(=O)N(C)[C@@H]3COCc4[nH]c(=O)c5cc(F)c(F)cc5c43)ccc2nn1C(F)F` [Compound 368, (S)-N-(8,9-Difluoro-6-oxo-1,4,5,6-tetrahydro-2H-pyrano[3,4-c]isoquinolin-1-yl)-2-(difluoromethyl)-3-methoxy-N-methyl-2H-indazole-5-carboxamide]: the EC50 turned out to be 3400 nM.
In the case of `COc1n[nH]c2ccc(C(=O)N(C)[C@@H]3COCc4[nH]c(=O)c5cc(F)c(F)cc5c43)cc12` [Compound 369, (S)-N-(8,9-Difluoro-6-oxo-1,4,5,6-tetrahydro-2H-pyrano[3,4-c]isoquinolin-1-yl)-3-methoxy-N-methyl-1H-indazole-5-carboxamide], the EC50 was determined as 6100 nM.
The result for `CN(C(=O)C1CN(c2csc(Cl)c2)C1)[C@@H]1COCc2[nH]c(=O)c3cc(F)c(F)cc3c21` [Compound 370, (S)-1-(5-Chlorothiophen-3-yl)-N-(8,9-difluoro-6-oxo-1,4,5,6-tetrahydro-2H-pyrano[3,4-c]isoquinolin-1-yl)-N-methylazetidine-3-carboxamide] reads 490 nM.
